Here are results for 1 substance from patent publication US20040049075A1, “Process for the production of calcium pantothenate” (priority 2000, published 2004).

This data set can be described thus: Moisture absorption test. To be noted: 40° C. and 75% RH; nonhygroscopic defined in b24 as moisture absorption 2% or less after 24 hours. The format is physicochemical. The text has this:
The term “crystalline” used in the specification encompasses a substance containing a small amount of an amorphous part, as well as a substance substantially consisting completely of crystals. However, calcium pantothenate in a completely amorphous state (the state which gives substantially no detectable peak by the powder X-ray diffraction analysis) is excluded. The term “crystalline” should not be interpreted to exclude a substance containing a small amount of an amorphous part. Further, the term “amorphous” means a state in which no peak is substantially detectable by powder X-ray diffraction analysis. The term “nonhygroscopic” used in the specification means that a moisture absorption amount is 2% or less, preferably 1% or less, after 24 hours at 40° C. under a relative humidity of 75%. A moisture absorption test was performed under conditions of 40° C. and 75% RH for the PC consisting of α-form crystals obtained in Example 1 and the PC consisting of β-form crystals obtained in Example 7. A similar test was performed for the amorphous PC used in Example 1 as a control.

As to “monocalcium bis[(R)-N-(2,4-dihydroxy-3,3-dimethylbutyryl)-β-alaninate]”, the “hygroscopicity (verdict of moisture absorption test)” value is recorded as “nonhygroscopic”.
